Source: US20110178053A1, “AZACARBOLINE DERIVATIVES, PREPARATION METHOD THEREOF AND THERAPEUTIC USE OF SAME” (SANOFI-AVENTIS, priority 2008, published 2011)
Like-named read-outs stand apart in the source and are kept apart here.

Key:
Type in all cases: biochemical
[1] = target: T1, Pim-1 (Homo sapiens, UniProt P11309); experiment: TR-FRET assay, Pim-1 kinase (phosphorylation of Bad Ser112); details: read-out: IC50 Pim1
T1 construct: His6-labelled recombinant full-length human Pim-1, Pim-2 or Pim-3 protein; His6; made in house
T1 sequence (P11309 whole entry): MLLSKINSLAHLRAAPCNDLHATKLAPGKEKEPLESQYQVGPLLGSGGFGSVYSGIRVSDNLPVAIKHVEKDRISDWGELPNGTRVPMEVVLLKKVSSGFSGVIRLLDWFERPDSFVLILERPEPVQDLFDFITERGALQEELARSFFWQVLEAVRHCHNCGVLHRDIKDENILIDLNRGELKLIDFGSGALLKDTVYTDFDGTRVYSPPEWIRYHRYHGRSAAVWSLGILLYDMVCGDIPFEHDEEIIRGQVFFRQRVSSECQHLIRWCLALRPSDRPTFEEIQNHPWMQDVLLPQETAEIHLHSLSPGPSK
Procedure: (§1) In order to determine the inhibition of activation of Pim kinases, the compounds of the invention are tested in accordance with a routinely used in vitro TR-FRET assay (Time-Resolved Fluorescence Resonance Energy Transfer). […] For the assay, the following reagents are used:
(§2) Pim kinase—His6-labelled recombinant full-length human Pim-1, Pim-2 or Pim-3 protein (prepared according to J. Mol. Biol. (2005) 348, 183-193); Bad—His6-labelled recombinant full-length human Bad protein (prepared according to J. Mol. Biol. (2005) 348, 183-193); α-His6-APC—murine monoclonal antibody conjugated to allophycocyanin SureLight™ directed against the His6 label (Perkin-Elmer, No. AD0059H, Waltham, Mass., United States); • β-P˜Bad-Eu—murine monoclonal antibody (Cell Signaling Technology #9296B, Danvers, Mass., United States) directed against phosphoBad (Ser112) (7E11) custom-labelled by Perkin-Elmer with the reagent LANCE™ Eu-W1024.
(§3) The assay is based on Perkin-Elmer's LANCE™ technology: the Eu-labelled antibody binds to phospho-Ser112 and generates a TR-FRET signal by interaction with the APC-labelled antibody directed against His6, bound to the His6 label of Bad. The TR-FRET signal is detected using a SpectraMax M5 plate reader (Molecular Devices) with the following settings: λex=340 nm, λem1=615 nm, λem2=665 nm. The ratio of the fluorescence signal at 665 nm to the fluorescence signal at 615 nm is used as the signal reading for the IC50 (calculation is based on the 4-parameter logistic model). The assay is performed in a 384-well format; the liquid manipulations are performed using a Beckman 3000 liquid manipulations station. The test compounds are tested at 10 concentration points in duplicate; the highest compound concentration is typically equal to 30 μM. The ATP concentration is equal to 40 μM, which is equivalent to the apparent KM value.

[2] = target: T2, Pim-3 (Homo sapiens, UniProt Q86V86); experiment: TR-FRET assay, Pim-3 kinase (phosphorylation of Bad Ser112); details: read-out: IC50 Pim3
T2 construct: His6-labelled recombinant full-length human Pim-1, Pim-2 or Pim-3 protein; His6; made in house
Procedure: as §1, §2, §3

[3] = target: T3, Pim-2 (Homo sapiens, UniProt Q9P1W9); experiment: TR-FRET assay, Pim-2 kinase (phosphorylation of Bad Ser112); details: read-out: IC50 Pim2
T3 construct: His6-labelled recombinant full-length human Pim-1, Pim-2 or Pim-3 protein; His6; made in house
T3 sequence (Q9P1W9 whole entry): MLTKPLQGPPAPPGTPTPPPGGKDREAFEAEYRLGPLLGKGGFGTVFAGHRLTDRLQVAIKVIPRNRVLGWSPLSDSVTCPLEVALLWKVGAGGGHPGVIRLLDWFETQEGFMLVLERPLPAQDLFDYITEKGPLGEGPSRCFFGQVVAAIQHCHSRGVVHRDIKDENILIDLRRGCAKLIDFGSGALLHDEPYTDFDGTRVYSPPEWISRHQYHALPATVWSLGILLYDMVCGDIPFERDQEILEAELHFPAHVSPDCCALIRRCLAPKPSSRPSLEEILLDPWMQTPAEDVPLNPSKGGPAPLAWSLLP
Procedure: as §1, §2, §3

[4] = comparative compounds (Compound No., not claimed)

| IC50 ([1]; TR-FRET, ATP 40 μM) | IC50 ([2]; TR-FRET, ATP 40 μM) | IC50 ([3]; TR-FRET, ATP 40 μM) | IC50 [1, 4] | IC50 [2, 4] | IC50 [3, 4] | SMILES |
| --- | --- | --- | --- | --- | --- | --- |
| 100 to 1000 nM | 100 to 1000 nM | 1000 to 5000 nM | – | – | – | Clc1cnc2[nH]c3cnc(-c4cccnc4)cc3c2c1 [Example 13, 3-chloro-6-(pyrid-3-yl)-9H-pyrrolo[2,3-b:5,4-c′]dipyridine] |
| 100 to 1000 nM | 100 to 1000 nM | 1000 to 5000 nM | – | – | – | Brc1cnc2[nH]c3cnc(-c4cccnc4)cc3c2c1 [Example 9, 3-bromo-6-(pyrid-3-yl)-9H-pyrrolo[2,3-b:5,4-c′]dipyridine] |
| 1 to 100 nM | 1 to 100 nM | 100 to 1000 nM | – | – | – | c1cncc(-c2cc3c(cn2)[nH]c2ncc(-c4ccc(OCCN5CCOCC5)cc4)cc23)c1 [Example 148, 3-{4-[2-(morpholin-4-yl)ethoxy]phenyl}-6-(pyrid-3-yl)-9H-pyrrolo[2,3-b:5,4-c′]-dipyridine] |
| 1000 to 5000 nM | 1000 to 5000 nM | > 5000 nM | – | – | – | CN(C)c1cccc(-c2c(F)cnc3[nH]c4cnc(-c5cccnc5)cc4c23)c1 [Example 58, 3-[3-fluoro-6-(pyrid-3-yl)-9H-pyrrolo[2,3-b:5,4-c′]dipyrid-4-yl]-N,N-dimethylaniline] |
| 1 to 100 nM | 1 to 100 nM | 1 to 100 nM | – | – | – | Cn1cc(-c2cc3c(cn2)[nH]c2ncc(F)c(-c4ccc(NS(C)(=O)=O)cc4)c23)cn1 [Example 171, N-{-4-[3-fluoro-6-(1-methyl-1H-pyrazol-4-yl)-9H-pyrrolo[2,3-b:5,4-c′]dipyrid-4-yl]-phenyl}methane sulfonamide] |
| 1 to 100 nM | 1 to 100 nM | 100 to 1000 nM | – | – | – | O=S(=O)(Nc1ccc(-c2c(F)cnc3[nH]c4cnc(-c5cccnc5)cc4c23)cc1)C1CC1 [Example 46, N-{4-[3-fluoro-6-(pyrid-3-yl)-9H-pyrrolo[2,3-b:5,4-c′]dipyrid-4-yl]phenyl}cyclo-propanesulfonamide] |
| 1 to 100 nM | 1 to 100 nM | 100 to 1000 nM | – | – | – | CN(C)CC(=O)N1CCN(c2ccc(-c3cnc4[nH]c5cnc(-c6cccnc6)cc5c4c3)cc2)CC1 [Example 135, 2-(dimethylamino)-1-(4-{4-[6-(pyrid-3-yl)-9H-pyrrolo[2,3-b:5,4-c′]dipyrid-3-yl]-phenyl}piperazin-1-yl)ethanone] |
| – | – | – | > 5000 nM | > 5000 nM | > 5000 nM | c1cncc(-c2cnc3[nH]c4ncccc4c3c2)c1 [Compound 56] |
| 1 to 100 nM | 100 to 1000 nM | 1000 to 5000 nM | – | – | – | CS(=O)(=O)Nc1cccc(-c2c(F)cnc3[nH]c4cnc(-c5cccnc5)cc4c23)c1 [Example 53, N-{3-[3-fluoro-6-(pyrid-3-yl)-9H-pyrrolo[2,3-b:5,4-c′]-dipyrid-4-yl]phenyl}-methanesulfonamide] |
| 100 to 1000 nM | 1000 to 5000 nM | > 5000 nM | – | – | – | CCN(CC)CCCn1cc(-c2cc3c(cn2)[nH]c2ncc(OC)cc23)cn1 [Example 166, N,N-diethyl-3-[4-(3-methoxy-9H-pyrrolo[2,3-b:5,4-c′]dipyrid-6-yl)-1H-pyrazol-1-yl]-propan-1-amine] |
| 1 to 100 nM | 1 to 100 nM | 100 to 1000 nM | – | – | – | Oc1ccc(-c2cnc3[nH]c4cnc(-c5cccnc5)cc4c3c2)cc1 [Example 151, 4-[6-(pyrid-3-yl)-9H-pyrrolo[2,3-b:5,4-c′]dipyrid-3-yl]phenol] |
| 100 to 1000 nM | 1000 to 5000 nM | > 5000 nM | – | – | – | Fc1cnc2[nH]c3cnc(-c4cccnc4)cc3c2c1Cl [Example 37, 4-chloro-3-fluoro-6-(pyrid-3-yl)-9H-pyrrolo[2,3-b:5,4-c′]dipyridine] |
| 1000 to 5000 nM | 100 to 1000 nM | 1000 to 5000 nM | – | – | – | Cc1cscc1-c1c(F)cnc2[nH]c3cnc(-c4cccnc4)cc3c12 [Example 57, 3-fluoro-4-(4-methyl-thiophen-3-yl)-6-(pyrid-3-yl)-9H-pyrrolo[2,3-b:5,4-c′]-dipyridine] |
| 1 to 100 nM | 1 to 100 nM | 100 to 1000 nM | – | – | – | c1cncc(-c2cc3c(cn2)[nH]c2ncc(-c4cccc(N5CCNCC5)c4)cc23)c1 [Example 132, 3-[3-(piperazin-1-yl)phenyl]-6-(pyrid-3-yl)-9H-pyrrolo[2,3-b:5,4-c′]dipyridine] |
| 100 to 1000 nM | 1000 to 5000 nM | > 5000 nM | – | – | – | CS(=O)(=O)c1cccc(-c2c(F)cnc3[nH]c4cnc(-c5cccnc5)cc4c23)c1 [Example 72, 3-fluoro-4-[3-(methylsulfonyl)phenyl]-6-(pyrid-3-yl)-9H-pyrrolo[2,3-b:5,4-c′]dipyridine] |
| 1 to 100 nM | 1 to 100 nM | 100 to 1000 nM | – | – | – | Cc1cc(N2CCNCC2)ncc1-c1cnc2[nH]c3cnc(-c4cccnc4)cc3c2c1 [Example 157, 3-[4-methyl-6-(piperazin-1-yl)pyrid-3-yl]-6-(pyrid-3-yl)-9H-pyrrolo[2,3-b:5,4-c′]-dipyridine] |
| 1 to 100 nM | 100 to 1000 nM | 1000 to 5000 nM | – | – | – | CN1CCN(C2CCN(c3c(F)cnc4[nH]c5cnc(-c6cccnc6)cc5c34)CC2)CC1 [Example 82, 3-fluoro-4-[4-(4-methylpiperazin-1-yl)piperid-1-yl]-6-(pyrid-3-yl)-9H-pyrrolo-[2,3-b:5,4-c′]-dipyridine] |
| 1 to 100 nM | 1 to 100 nM | 100 to 1000 nM | – | – | – | CC(=O)N1CCN(c2ccc(-c3cnc4[nH]c5cnc(-c6cccnc6)cc5c4c3)cc2)CC1 [Example 137, 1-(4-{4-[6-(pyrid-3-yl)-9H-pyrrolo[2,3-b:5,4-c′]dipyrid-3-yl]phenyl}piperazin-1-yl)-ethanone] |
| 1 to 100 nM | 100 to 1000 nM | 1000 to 5000 nM | – | – | – | OCCN1CCN(c2c(F)cnc3[nH]c4cnc(-c5cccnc5)cc4c23)CC1 [Example 81, 2-{4-[3-fluoro-6-(pyrid-3-yl)-9H-pyrrolo[2,3-b:5,4-c′]dipyrid-4-yl]piperazin-1-yl}ethanol] |
| 1 to 100 nM | 1 to 100 nM | > 5000 nM | – | – | – | c1cncc(-c2cc3c(cn2)[nH]c2ncc(N4CCNCC4)cc23)c1 [Example 108, 3-(piperazin-1-yl)-6-(pyrid-3-yl)-9H-pyrrolo[2,3-b:5,4-c′]-dipyridine] |
| 1 to 100 nM | 100 to 1000 nM | > 5000 nM | – | – | – | Fc1cnc2[nH]c3cnc(-c4cccnc4)cc3c2c1N1CCC(N2CCOCC2)CC1 [Example 78, 3-fluoro-4-[4-(morpholin-4-yl)piperid-1-yl]-6-(pyrid-3-yl)-9H-pyrrolo[2,3-b:5,4-c′]-dipyridine] |
| 100 to 1000 nM | 100 to 1000 nM | > 5000 nM | – | – | – | CSc1cncc(-c2cc3c(cn2)[nH]c2ncc(F)cc23)c1 [Example 161, 3-fluoro-6-[5-(methylsulfanyl)pyrid-3-yl]-9H-pyrrolo[2,3-b:5,4-c′]dipyridine] |
| 100 to 1000 nM | 100 to 1000 nM | > 5000 nM | – | – | – | COc1ccc(-c2c(F)cnc3[nH]c4cnc(-c5cccnc5)cc4c23)cn1 [Example 52, 3-fluoro-4-(6-methoxypyrid-3-yl)-6-(pyrid-3-yl)-9H-pyrrolo[2,3-b:5,4-c′]-dipyridine] |
| 100 to 1000 nM | 100 to 1000 nM | 1000 to 5000 nM | – | – | – | Nc1ccc(-c2c(F)cnc3[nH]c4cnc(-c5cccnc5)cc4c23)cn1 [Example 74, 5-[3-fluoro-6-(pyrid-3-yl)-9H-pyrrolo[2,3-b,-c′]dipyrid-4-yl]pyrid-2-amine] |
| 1 to 100 nM | 1 to 100 nM | 100 to 1000 nM | – | – | – | c1cncc(-c2cc3c(cn2)[nH]c2ncc(-c4ccc(N5CCNCC5)nc4)cc23)c1 [Example 158, 3-[6-(piperazin-1-yl)pyrid-3-yl]-6-(pyrid-3-yl)-9H-pyrrolo[2,3-b:5,4-c′]dipyridine] |
| 1 to 100 nM | 1 to 100 nM | 1000 to 5000 nM | – | – | – | CC(C)Cn1cc(-c2cnc3[nH]c4cnc(-c5cccnc5)cc4c3c2)cn1 [Example 117, 3-[1-(2-methyl-propyl)-1H-pyrazol-4-yl]-6-(pyrid-3-yl)-9H-pyrrolo[2,3-b:5,4-c′]dipyridine] |
| 1 to 100 nM | 1 to 100 nM | 1000 to 5000 nM | – | – | – | c1cncc(-c2cc3c(cn2)[nH]c2ncc(-c4ccc(N5CCN(C6CC6)CC5)cc4)cc23)c1 [Example 141, 3-[4-(4-cyclopropylpiperazin-1-yl)phenyl]-6-(pyrid-3-yl)-9H-pyrrolo[2,3-b:5,4-c′]-dipyridine] |
| 1 to 100 nM | 1 to 100 nM | 100 to 1000 nM | – | – | – | CN(C)CCCOc1ccc(-c2cnc3[nH]c4cnc(-c5cccnc5)cc4c3c2)cc1 [Example 146, N,N-dimethyl-3-{4-[6-(pyrid-3-yl)-9H-pyrrolo[2,3-b:5,4-c′]dipyrid-3-yl]phenoxy}-propan-1-amine] |
